Experimental data reported in patent US6551585B1, “Use of tumor necrosis factor as an adjuvant” (Genentech, Inc., priority 1987, dated 2003).
Marks after values point to notes of the source that are not given here.

Assays:
[1] = tested on: bovine serum albumin (BSA); experiment: Serum antibody (IgG) against BSA by Elisa after BSA immunization; assay type: in vivo, C3H/HeN mice; details: for Production of antibody (IgG) against BSA: BSA 500 μg i.p. day 0 and second injection 100 μg, adjuvant at various doses, bled three days later, Elisa
Experimental: C3H/HeN mice were given an i.p. injection of bovine serum albumin using a suboptimal vaccine dose (500 μg/animal), which was administered by i.p. injection on day 0. Various doses of TNF-α, as an adjuvant, were administered 48 hours following a second injection of BSA at 100 μg/animal. The mice were bled three days later and the serum antibody levels as IgG were determined using routine Elisa techniques. The i.v. injection of maleic divinyl ether with an average molecular weight of 20,000 daltons was used as a positive control.

[2] = tested on: 2237 tumor cells (syngeneic fibrosarcoma); experiment: Immunization with radiation killed 2237 tumor cells plus adjuvant, then footpad challenge with live 2237 cells; tumor volume by calipers; assay type: in vivo, C3H/HeN mice
From the text: C3H/HeN mice were immunized with 1×10^5 radiation killed 2237 tumor cells. The 2237 cell line is a moderately antigenic syngeneic fibrosarcoma obtained from s.c. growing tumors by collagenase dissociation. The donor tumor cells for use in tumor vaccine were irradiated with 10,000 R of gamma irradiation. Irradiation ultimately kills the cells but they are not immediately killed, indeed the cells may be able to undergo one or two additional divisions before a sufficient accumulation of chromosomal breaks or other abnormalities is obtained to result in a lethal event. Thus, irradiation results in a metabolically viable but noncontinuously proliferating cell. The cells were admixed with HBSS alone (serving as a non-adjuvant killed cell control vaccine), or with HBSS containing various doses of homogeneous recombinant Val-terminal human TNF-α alone or TNF-α plus IFN-γ. The mixture was injected intradermally into the posterior ventral region at five sites. Controls also included TNF without tumor cells, injections of HBSS alone (without killed 2237 cells), and FK565, a dimuramyl dipeptide derivative representing a known adjuvant as a positive control. Primary immunization with 2237 cells and TNF-α occurred on day 1; TNF-α was administered intraperitoneally alone on days 2 and 3. Secondary intradermal immunization occurred on day 11 with the same number of killed cells. When IFN-γ was used with TNF-α, IFN-γ administrations accompanied the TNF-α administration and further, IFN-γ, TNF-α or IFN-γ plus TNF-α were administered intraperitoneally on days 12 and 13. Five days after the second immunization the animals' footpads were injected with live 2237 cells. 48, 74 and 81 days later the tumors that had developed were measured by calipers in two dimensions. Numerous control animals had died by the last measurement day. […] Tumor volume was determined using the formula for a prolated sphere using the two dimensions previously measured. The formula is tumor volume (cm^3) equals ½ A×B^2; where A equals the larger tumor diameter and B equals the smaller tumor diameter.

2237 cells = experiment: Direct cytotoxic effect on 2237 cells; assay type: cell-based
From the text: This is not especially relevant in the context of the foregoing experiments because the tumor cells were not injected into the animals until 2 days after they had last been exposed to cytokines.

cytotoxic T cells = experiment: Development of cytotoxic T cells in 2237-cell immunized mice; assay type: in vivo
[3] = 5 × 10^4 units per animal with killed 2237 cell vaccine
[4] = 500 μg per animal with killed 2237 cell vaccine
[5] = 0.1 μg per animal with killed 2237 cell vaccine
[6] = 1 μg per animal with killed 2237 cell vaccine
[7] = 5 μg per animal with killed 2237 cell vaccine

maleic divinyl ether [MVE-2, reference compound]
Production of antibody (IgG) against BSA [1]: in a dose-dependent manner augmented

IFN-γ: IFN-γ (γ-interferon) lymphokine given with or without TNF-α
Tumor Volume Day 48 [2, 3]: 0 cm^3 | Tumor Volume Day 74 [2, 3]: 0 cm^3 | Tumor Volume Day 81 [2, 3]: 0 cm^3

CCCCCCC(=O)N[C@H](CCC(=O)N[C@@H](CCC[C@@H](N)C(=O)O)C(=O)N[C@H](C)C(=O)O)C(=O)O [FK565, reference compound]
Tumor Volume Day 48 [2, 4]: 0 cm^3 | Tumor Volume Day 74 [2, 4]: 0 cm^3 | Tumor Volume Day 81 [2, 4]: 0 cm^3

TNF-α
Tumor Volume Day 48 [2, 5]: 0 cm^3 | Tumor Volume Day 74 [2, 5]: 0 cm^3 | Tumor Volume Day 81 [2, 5]: 0 cm^3 | Fate of the tumor that had developed in one animal ([2]; 1 μg per animal group, footnote to Day 48 value): *The tumor that had developed in one animal in this group regressed before the end of the study. | Tumor Volume Day 48 [2, 6]: 0.157* cm^3 | Tumor Volume Day 74 [2, 6]: 0 cm^3 | Tumor Volume Day 81 [2, 6]: 0 cm^3 | Tumor Volume Day 48 [2, 7]: 0 cm^3 | Tumor Volume Day 74 [2, 7]: 0 cm^3 | Tumor Volume Day 81 [2, 7]: 0 cm^3 | Direct cytotoxic effect on 2237 cells (2237 cells): Neither TNF-α nor IFN-γ have any significant direct cytotoxic effect | Stimulation of the development of cytotoxic T cells (cytotoxic T cells): able to stimulate the development of cytotoxic T cells | Production of antibody (IgG) against BSA [1]: in a dose-dependent manner augmented | Serum antibody activity after injection of TNF alone ([1]; control, TNF alone): did not induce serum antibody activity

B1: IFN-γ: IFN-γ (γ-interferon) lymphokine given with or without TNF-α (protein, UniProt P01579 24-161, looked up)
Interferon gamma: QDPYVKEAENLKKYFNAGHSDVADNGTLFLGILKNWKEESDRKIMQSQIVSFYFKLFKNFKDDQSIQKSVETIKEDMNVKFFNSNKKKRDDFEKLTNYSVTDLNVQRKAIHELIQVMAELSPAAKTGKRKRSQMLFRG
Direct cytotoxic effect on 2237 cells (2237 cells): Neither TNF-α nor IFN-γ have any significant direct cytotoxic effect
